Laboratory results published in article PMC5969508, “Stapled peptides as a new technology to investigate protein–protein interactions in human platelets” (Chemical Science, 2018).
Read-outs that look alike come from different tables or passages of the source. Each block holds one compound with its values, some of them ahead of it.

Tests used:
human platelets [1] = assay: Platelet activation markers (PAC-1, CD62P, CD63 binding) by flow cytometry; format: cell-based; details: for platelet activation markers PAC-1, CD62P, CD63 (in words): washed human platelets, 10 μM, 1 h treatment, flow cytometry (Fig. 5B)
Procedure: Fig. 5 (A) Functionalised, stapled Bim BH3 peptides induce PS exposure in platelets. […] (B) Stapled Bim BH3 peptides, but not ABT737 nor 21, induce platelet activation. Platelet activation markers (% positive platelets) were investigated following 1 h of peptide treatment. [drawing 10] PAC-1, [drawing 11] CD62P and [drawing 12] CD63 binding. Statistical significance compared to 20: ****P < 0.0001, ***P between 0.0001 and 0.0005, **P between 0.0010 and 0.0050 ns = non-significant.
(§1) Ethical approval for this study was obtained from the Faculty Research Ethics Committee at Anglia Ruskin University, Cambridge, UK.
(§2) 1.1 Preparation of washed platelet suspension
Blood was collected into 11 mM sodium citrate and washed platelets were prepared as follows: Platelet-rich plasma (PRP) was obtained by centrifugation (240 g, 15 min). Prostaglandin E1 (PGE1, 2 µM) was added to prevent premature platelet activation, and the plasma was centrifuged at 640 g for 15 min. Platelets were suspended in calcium free Tyrode‘s buffer (CFT buffer, containing: 140 mM NaCl, 5 mM KCl, 10 mM N-2-hydroxyethylpiperazine-N‘-2-ethanesulfonic acid (HEPES), 5 mM Glucose, 0.42 mM NaH2PO4, 12 mM NaHCO3, titrated to pH 7.4 with NaOH) to a final concentration of 2x108 platelet/mL and rested at 37 °C for 1 h prior to experimentation.
Treated washed platelet suspensions (1x10^7/mL) were analysed by flow cytometry using a C6 Accuri Flow Cytometer (Beckton Dickinson, UK), in the presence or absence of Annexin-V-PE (BD Biosciences, UK), anti-PAC-1 (BD Biosciences), anti-CD62 (BD Pharmingen, UK), or anti-CD-63P (BD Pharmingen).
Peptides were used to a final concentration of 10 µM (1 mM DMSO stock solutions). At least 10,000 events were acquired per experiment. The entire platelet population was primarily gated by FSC. […]
(§3) The washed platelet suspension was rested at 37 °C for 1 h before commencing the experiment. […] For real time measurments, the peptides were added to the 250 μL of washed platelet suspension after events were recorded for 1 minute and monitored for a further 4 min. […]
The suspensions were analysed by […]

Bcl-xL = molecular target: T1, Bcl-xL (Homo sapiens, UniProt Q07817); assay: Surface plasmon resonance (SPR) direct binding to Bcl-xL; details: 25 °C
T1 construct: made in house; host or cells: Escherichia coli BL21 Gold DE3
From the text: 1.9 Surface Plasmon Resonance (SPR)
The present method utilizes a Surface plasmon resonance (SPR)-based biosensor (BiacoreTM, GE Healthcare,
Uppsala, Sweden) to characterize Bcl-xL peptide interaction partners.
The SPR assay is configured to examine direct binding of peptide s to Bcl-xL derivatized sensor surfaces and
generate relative affinity values (KDapp) to provide relative ranking data for the series of peptides under
BiacoreTM T200 (GE Healthcare, Uppsala, Sweden) was used to conduct all experiments reported herein. Sensor
surface preparation and all interaction analyses experiments were performed at 25 °C utilizing a data collection
rate of 10 Hz. Reagents were purchased from GE Healthcare. Running buffer containing 10 mM Hepes, pH 7.4,
150 mM sodium chloride, 1 mM dithiothreitol, 1% DMSO and 0.05% polysorbate 20 were utilized throughout
surface preparation and all interaction analysis experiments.
Histidine tagged Bcl-xL protein was diluted to 5 μg/mL and captured onto Sensor chip NTA via the following
sequence of injections to achieve a target Bcl-xL surface density of 700 R.U. (response units). The carboxymethyl
dextran surface of Sensor chip NTA was activated by injection of an aqueous solution containing 50 mM N-hydroxy
succinimide (NHS) and 200 mM N-ethyl-N’-(dimethylaminopropyl) carbodiimide (EDC). 500 μM nickel sulfate (NiSO4)
was subsequently injected for one minute and utilized to capture Bcl-xL from a 5 μg/mL solution injected for one
minute. A further one-minute injection of 1M ethanolamine, pH 8.5 was performed to deactivate any unreacted
carboxymethylesters.3 The flow-rate for all injections during surface derivatization was 10 µl/min.

human platelets [2] = assay: Confocal microscopy of platelets incubated with fluorescently labelled peptides; format: cell-based; details: live washed platelets, 10 µM FITC-labelled peptide, 15 minutes incubation, confocal imaging (Fig. SI_5)
Procedure: (§4) Fig. 3 A functionalised staple is required to induce peptide uptake into platelets. (A) Platelets were incubated with TAMRA labelled model peptides (10 μM final concentration) for 1 h (white), 2 h (grey) and 3 h incubation (black) and the percentage positive for TAMRA fluorescence was quantified using flow cytometry. (B) Peptides showing high uptake within the first hour were analysed during first 5 min following treatment. Changes in platelet-associated fluorescence were recorded in real time using flow cytometry. Unlabelled platelets were recorded for 30 s prior to addition of the given peptide. (C) Platelets were incubated with 10 μM of TAMRA-model peptides for 1 h prior to imaging by confocal microscopy. ^‡ […]
Peptide uptake experiments of the most permeable model peptides 5, 13–16 were repeated in the presence of platelet-rich plasma (PRP) to ensure realistic conditions (ESI, Fig. SI_2a ^†).
Figure SI_3. […]
Peptides were used to a final concentration of 10 µM. […] Images of TAMRA-labelled model peptide stained platelets were acquired after 1 h incubation1 using with excitation at 565 nm and emission was detected with a 560 -615 nm BP filter. […]
were acquired after 15 minutes incubation1 using excitation at 488 nm and emission was detected with […]

human platelets [3] = assay: Peptide uptake in washed platelet suspension by flow cytometry; format: cell-based; details: for positive platelets (TAMRA fluorescence), peptide uptake: TAMRA-labelled model peptide 10 μM (1 mM DMSO stock), 37 °C in the dark, 3 h incubation, flow cytometry, mean ± SEM, at least three donors
Procedure: Washed platelet suspensions were incubated with peptides for varying periods of time and cellular uptake was quantified using flow cytometry. […] Only 34.9 ± 7.8% of platelets were fluorescent following 8 (poly-lysine) treatments after 3 hours. Changes in fluorescence were not observed with other peptides (Fig. 3A).
as §4
In order to explore the rate of peptide uptake, changes in platelet fluorescence were monitored during the first 5 minutes (Fig. 3B) and after 15, 30, 45 and 60 minutes following treatment with peptides (Fig. SI_1, ESI ^†). More than 50% of platelets became fluorescent during the first 15 minutes of incubation with peptides 13–16, with a further increase after the first 45 minutes. Some 40–50% of platelets were fluorescent after 15 minutes following treatment with peptides 2, 5 or 8. No further increase was observed thereafter (Fig. SI_1, ESI ^†).
as §1, §2
Blood was collected into 11 mM sodium citrate and washed platelets were prepared as follows: Platelet-rich plasma (PRP) was obtained by centrifugation (240 g, 15 min). Prostaglandin E1 (PGE1, 2 µM) was added to prevent premature platelet activation, and the plasma was centrifuged at 640 g for 15 min. […]
Treated washed platelet suspensions (1x10^7/mL) were analysed by flow cytometry using a C6 Accuri Flow Cytometer (Beckton Dickinson, UK), in the presence or absence of Annexin-V-PE (BD Biosciences, UK), anti-PAC-1 (BD Biosciences), anti-CD62 (BD Pharmingen, UK), or anti-CD-63P (BD Pharmingen). […]
as §3

human platelets [4] = assay: PS exposure (annexin-V binding) by flow cytometry; format: cell-based; details: washed human platelets, 10 μM, 37 °C, time course up to 3 h, flow cytometry (Fig. 5A)
Procedure: Platelet activation markers (% positive platelets) were investigated following 1 h of peptide treatment. […] CD63 binding.
Human blood was collected from healthy volunteers, who had not taken medication for two weeks,
following informed consent in accordance with the Declaration of Helsinki. Blood was collected into 11 mM sodium citrate and washed platelets were prepared as follows: Platelet-rich plasma (PRP) was obtained by centrifugation (240 g, 15 min). Prostaglandin E1 (PGE1, 2 µM) was added to prevent premature platelet activation, and the plasma was centrifuged at 640 g for 15 min. […]
PS exposure was assessed after incubation of 50 µL of washed platelet suspensions at 37 °C in 445 µL of […]
under the protection from direct light and analysed by flow cytometry.
Platelet activation markers (PAC -1, CD62P and CD63 binding) were assessed after incubation of 3 µL of […]
antibody and the peptide (1.1 μL of 1 mM stock solution in DMSO) . The suspensions were analysed by […]

[5] = SPR Biacore T200, His-tagged Bcl-xL on Sensor chip NTA, 7-point 2-fold dilution 33.3 nM to 1.03 nM, steady state fit, Table S1, read-out: Rel. Kdapp
[6] = washed human platelet suspension

T1 sequence (Q07817 whole entry): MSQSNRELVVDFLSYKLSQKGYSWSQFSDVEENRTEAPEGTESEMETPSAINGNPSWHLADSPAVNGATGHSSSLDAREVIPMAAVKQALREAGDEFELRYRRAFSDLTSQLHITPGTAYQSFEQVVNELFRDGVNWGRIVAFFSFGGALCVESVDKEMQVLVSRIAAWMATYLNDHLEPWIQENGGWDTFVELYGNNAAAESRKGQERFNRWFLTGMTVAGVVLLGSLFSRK

SMILES: CN(C)CC[C@H](CSc1ccccc1)Nc1ccc(S(=O)(=O)NC(=O)c2ccc(N3CCN(Cc4ccccc4-c4ccc(Cl)cc4)CC3)cc2)cc1[N+](=O)[O-] [ABT737]
PAC1-positive platelets (integrin αIIbβ3 activation) (human platelets [1]; washed human platelets in CFT buffer pH 7.4, 10 μM, 37 °C, after 1 hour, flow cytometry, mean ± SEM): ineffective
platelet activation markers PAC-1, CD62P, CD63 (in words) (human platelets [1]): no increase in any activation marker

Kd (Bcl-xL; [5]): > 33 nM
localisation / platelet permeability of FITC-labelled Bim BH3 peptide (human platelets [2]): able to enter the platelet cytosol
SMILES: CC[C@H](C)[C@H](NC(C)=O)C(=O)N[C@@H](Cc1c[nH]c2ccccc12)C(=O)N[C@H](C(=O)N[C@@H](C)C(=O)N[C@@H](CCC(N)=O)C(=O)N[C@@H](CCC(=O)O)C(=O)N[C@@H](CC(C)C)C(=O)N[C@@H](CCCNC(=N)N)C(=O)N[C@@]1(C)CCCC=CCCC[C@@](C)(C(=O)N[C@@H](Cc2ccccc2)C(=O)N[C@@H](CC(N)=O)C(=O)N[C@@H](C)C(=O)N[C@@H](Cc2ccc(O)cc2)C(=O)N[C@@H](Cc2ccc(O)cc2)C(=O)N[C@@H](C)C(=O)N[C@@H](CCCNC(=N)N)C(=O)N[C@@H](CCCNC(=N)N)C(N)=O)NC(=O)[C@H](CC(=O)O)NC(=O)CNC(=O)[C@H]([C@@H](C)CC)NC1=O)[C@@H](C)CC [Bim SAHBa, reference compound]
relative KDapp (Bcl-xL; SPR, His-tagged Bcl-xL captured on Sensor chip NTA, steady state affinity, as quoted in main text): reduced binding affinity compared to the wild-type and peptide 19

positive platelets (TAMRA fluorescence), peptide uptake (human platelets [3]; [6]): 73.0 ± 13.3%
SMILES: CC(C)C[C@@H]1NC(=O)[C@H](CC(C)C)NC(=O)[C@H](CCCNC(=N)N)NC(=O)[C@H](Cc2c[nH]c3ccccc23)NC(=O)[C@H](CC(C)C)NC(=O)[C@H](CC(=O)O)NC(=O)[C@@H](NC(=O)[C@H](Cc2ccccc2)NC(=O)[C@@H](NC(=O)[C@H](CCC(=O)O)NC(=O)CCCCCNC(=O)c2ccc3c(c2)C(=O)OC32c3ccc(N(C)C)cc3Oc3cc(N(C)C)ccc32)[C@@H](C)O)CCCn2cc(nn2)-c2cc(C(=O)N[C@@H](CCCNC(=N)N)C(=O)N[C@@H](CCCNC(=N)N)C(N)=O)cc(c2)-c2cn(nn2)CCC[C@@H](C(=O)N[C@@H](CCC(=O)O)C(=O)N[C@@H](CC(N)=O)C(N)=O)NC1=O [compound 4]

positive platelets (TAMRA fluorescence), peptide uptake (human platelets [3]; [6]): 87.0 ± 7.3%
fluorescent platelets, peptide uptake (human platelets [3]; washed human platelet suspension, TAMRA-labelled model peptide 10 μM, 37 °C, first 15 minutes of incubation, flow cytometry (Fig. SI_1)): 40–50%
change in platelet-associated fluorescence in real time (human platelets [3]; washed human platelets, TAMRA-labelled peptide, continuous flow cytometry during first 5 minutes of treatment (Fig. 3B)): rapid increase in platelet fluorescence
SMILES: CC(C)C[C@@H]1NC(=O)[C@H](CC(C)C)NC(=O)[C@H](CCCNC(=N)N)NC(=O)[C@H](Cc2c[nH]c3ccccc23)NC(=O)[C@H](CC(C)C)NC(=O)[C@H](CC(=O)O)NC(=O)[C@@H](NC(=O)[C@H](Cc2ccccc2)NC(=O)[C@@H](NC(=O)[C@H](CCC(=O)O)NC(=O)CCCCCNC(=O)c2ccc3c(c2)C(=O)OC32c3ccc(N(C)C)cc3Oc3cc(N(C)C)ccc32)[C@@H](C)O)CCCn2cc(nn2)-c2cc(C(=O)N[C@@H](CCCNC(=N)N)C(=O)N[C@@H](CCCNC(=N)N)C(=O)N[C@@H](CCCNC(=N)N)C(N)=O)cc(c2)-c2cn(nn2)CCC[C@@H](C(=O)N[C@@H](CCC(=O)O)C(=O)N[C@@H](CC(N)=O)C(N)=O)NC1=O [compound 5]

Kd (Bcl-xL; [5]): 26.2 nM
Kd (Bcl-xL; SPR, His-tagged Bcl-xL captured on Sensor chip NTA, steady state affinity, as quoted in main text, read-out: relative KDapp): 26 nM
SMILES: CC[C@H](C)[C@H](NC(C)=O)C(=O)N[C@@H](Cc1c[nH]c2ccccc12)C(=O)N[C@H](C(=O)N[C@@H](C)C(=O)N[C@@H](CCC(N)=O)C(=O)N[C@@H](CCC(=O)O)C(=O)N[C@@H](CC(C)C)C(=O)N[C@@H](CCCNC(=N)N)C(=O)N[C@H]1CCCn2cc(nn2)-c2cc(C(=O)N[C@@H](CCCNC(=N)N)C(=O)N[C@@H](CCCNC(=N)N)C(=O)N[C@@H](CCCNC(=N)N)C(N)=O)cc(c2)-c2cn(nn2)CCC[C@@H](C(=O)N[C@@H](Cc2ccccc2)C(=O)N[C@@H](CC(N)=O)C(=O)N[C@@H](C)C(=O)N[C@@H](Cc2ccc(O)cc2)C(=O)N[C@@H](Cc2ccc(O)cc2)C(=O)N[C@@H](C)C(=O)N[C@@H](CCCNC(=N)N)C(=O)N[C@@H](CCCNC(=N)N)C(N)=O)NC(=O)[C@H](CC(=O)O)NC(=O)CNC(=O)[C@H]([C@@H](C)CC)NC1=O)[C@@H](C)CC [peptide 19]

Rel. Kdapp (Bcl-xL; SPR Biacore T200, His-tagged Bcl-xL on Sensor chip NTA, 7-point 2-fold dilution 33.3 nM to 1.03 nM, steady state fit, Table S1): No binding
SMILES: CC[C@H](C)[C@H](NC(C)=O)C(=O)N[C@@H](Cc1c[nH]c2ccccc12)C(=O)N[C@H](C(=O)N[C@@H](C)C(=O)N[C@@H](CCC(N)=O)C(=O)N[C@@H](CCC(=O)O)C(=O)N[C@@H](CC(C)C)C(=O)N[C@@H](CC(=O)O)C(=O)N[C@H]1CCCn2cc(nn2)-c2cc(C(=O)N[C@@H](CCCNC(=N)N)C(=O)N[C@@H](CCCNC(=N)N)C(=O)N[C@@H](CCCNC(=N)N)C(N)=O)cc(c2)-c2cn(nn2)CCC[C@@H](C(=O)N[C@@H](Cc2ccccc2)C(=O)N[C@@H](CC(N)=O)C(=O)N[C@@H](C)C(=O)N[C@@H](Cc2ccc(O)cc2)C(=O)N[C@@H](Cc2ccc(O)cc2)C(=O)N[C@@H](C)C(=O)N[C@@H](CCCNC(=N)N)C(=O)N[C@@H](CCCNC(=N)N)C(N)=O)NC(=O)[C@H](CC(=O)O)NC(=O)CNC(=O)[C@H]([C@@H](C)CC)NC1=O)[C@@H](C)CC [peptide 21]
platelet activation markers PAC-1, CD62P, CD63 (in words) (human platelets [1]): nonspecific activation was not observed
PS exposure / annexin-V binding (in words) (human platelets [4]): did not result in PS exposure
